In ChEMBL document CHEMBL6096710, “Re-evaluation of Cyclic Peptide Binding to Neurotensin Receptor 1 by Shifting the Peptide Register during Synthesis” (ACS Med Chem Lett, 2025):
Square brackets hold non-standard residues; d marks the D form. Peptide text beside a SMILES is read from it. NMeR = CN[C@@H](CCCNC(=N)N)C(=O)O; Tle = CC(C)(C)[C@H](N)C(=O)O

Key:
[1] = Displacement of FAM-NT8-13 from rat NTSR1 stably expressed in HEK293F cells incubated for 1 hr under dark condition by mCherry fluorophore based competition binding assay; type: cell-based
[2] = biological target: Neurotensin receptor type 1 (Homo sapiens, UniProt P30989); assay: Inhibition of NTSR1 (unknown origin)
Chain of Neurotensin receptor type 1 (P30989 whole entry): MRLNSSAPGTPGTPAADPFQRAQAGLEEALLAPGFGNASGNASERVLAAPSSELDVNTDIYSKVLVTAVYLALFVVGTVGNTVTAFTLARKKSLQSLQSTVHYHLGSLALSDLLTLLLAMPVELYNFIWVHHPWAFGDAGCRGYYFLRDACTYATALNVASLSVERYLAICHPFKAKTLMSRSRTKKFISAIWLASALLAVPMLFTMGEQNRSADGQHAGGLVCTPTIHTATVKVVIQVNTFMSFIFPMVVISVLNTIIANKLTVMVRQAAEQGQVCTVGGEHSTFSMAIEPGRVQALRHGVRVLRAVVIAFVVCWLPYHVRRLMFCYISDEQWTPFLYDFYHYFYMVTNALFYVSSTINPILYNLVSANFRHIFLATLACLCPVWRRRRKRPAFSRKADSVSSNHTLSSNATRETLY

Row | SMILES | Ki [1] [µM] | pKi [1] | Ki [2] [µM]
1 | CC(C)C[C@H](NC(=O)[C@@H](NC(=O)[C@H](Cc1ccc(O)cc1)NC(=O)[C@@H]1CCCN1C(=O)[C@H](CCCCN)NC(=O)[C@@H](N)CCCNC(=N)N)C(C)(C)C)C(=O)O (H-RKPY[Tle]L-OH) | 0.0479 | 7.32 | 
2 | CN[C@@H](CCCNC(=N)N)C(=O)N[C@@H](CCCCN)C(=O)N1CCC[C@H]1C(=O)N[C@@H](Cc1c[nH]c2ccccc12)C(=O)N[C@H](C(=O)N[C@@H](CC(C)C)C(=O)O)C(C)(C)C (H-[NMeR]KPW[Tle]L-OH) |  |  | 0.00537
3 | CC(C)C[C@H](NC(=O)[C@@H](N)C(C)(C)C)C(=O)N[C@@H](CCCNC(=N)N)C(=O)N[C@@H](CCCCN)C(=O)N1CCC[C@H]1C(=O)N[C@@H](Cc1ccc(O)cc1)C(=O)O (H-[Tle]LRKPY-OH) |  | < 4 | 
4 | CC(C)C[C@@H]1NC(=O)[C@H](C(C)(C)C)NC(=O)[C@H](Cc2ccc(O)cc2)NC(=O)[C@@H]2CCCN2C(=O)[C@H](CCCCN)NC(=O)[C@H](CCCNC(=N)N)NC1=O (cyclo(KPY[Tle]LR)) | 1.48 | < 4 | 1.07
